Literature values, collected in article PMC8329336, “The Role of Co-Signaling Molecules in Psoriasis and Their Implications for Targeted Treatment” (Frontiers in Pharmacology, 2021).
Where two headings read alike, the source gives them in different places.

Experiments:
[1] = test system: ICAM-1; parameters: method as in Wen et al., 2014; Xiong et al., 2015; conditions: ref Wen et al., 2014; Xiong et al., 2015
[2] = test system: OX40
[3] = test system: p40 subunits of IL-23 and IL-12; parameters: method as in Lebwohl et al., 2015; conditions: through binding to the p40 subunits of IL-23 and IL-12; ref Lebwohl et al., 2015
[4] = test system: human T cells; parameters: method as in Kuschei et al., 2011; conditions: ref Kuschei et al., 2011
[5] = test system: LFA-1; conditions: led to withdrawal from the US market in 2009; ref Kuschei et al., 2011; Hsu and Tsai, 2020
[6] = test system: LFA-1; parameters: method as in Guttman-Yassky et al., 2008; Grönholm et al., 2016; conditions: ref Guttman-Yassky et al., 2008; Grönholm et al., 2016
[7] = test system: CD40; conditions: for Efficacy (PASI scores of psoriasis) / Adverse event: patients with psoriasis, ref Anil Kumar et al. (2018); for Efficacy (PASI scores of psoriasis): Phase I; for Adverse event: limited number of patients
[8] = Phase I, ref Papp et al. (2017)

In the case of CC(C)=CCC[C@]1(C)C=Cc2c(O)c3c(c(CC=C(C)C)c2O1)O[C@]12C(=C[C@@H]4C[C@H]1C(C)(C)O[C@@]2(C/C=C(/C)C(=O)O)C4=O)C3=O [gambogic acid], the effect on psoriasis [1] is listed as “improve” and the “expression of ICAM-1” value [1] is listed as “inhibiting”.

For “KHK4083: fully human monoclonal antibody against OX40”, the Adverse event [2, 8] is listed as “Mild or moderate chills, infusion site reactions”, the PASI scores [2, 8] is listed as “PASI scores↓” and the efficacy ([2]; highest dose (10 mg/ kg), patients with mild to moderate plaque psoriasis, ref Papp et al., 2017) is listed as “good efficacy”. The safety and tolerability ([2]; phase I study, ref Papp et al., 2017) was “safe and well tolerated”.

In the case of CC1(C)[C@@H](O[C@H]2O[C@H](C(=O)O)[C@@H](O)[C@H](O)[C@H]2O[C@@H]2O[C@H](C(=O)O)[C@@H](O)[C@H](O)[C@H]2O)CC[C@]2(C)[C@H]3C(=O)C=C4[C@@H]5C[C@@](C)(C(=O)O)CC[C@]5(C)CC[C@@]4(C)[C@]3(C)CC[C@@H]12 [glycyrrhizin], the effect on psoriasis [1] is listed as “improve” and the “expression of ICAM-1” value [1] is listed as “inhibiting”.

For “Anti-p40: approved drug for psoriasis treatment, binds to the p40 subunits of IL-23 and IL-12”, the “IL-23A-induced IL-17A production” value [3] is listed as “inhibit”.

In the case of “Efalizumab: humanized monoclonal antibody against LFA-1”, the “co-stimulatory molecules ICOS, OX40, CD27, and 4-1BB” value ([4]; human T cells) is given as “downregulating”, the “proliferation and cytokine production of human T cells” value [4] is given as “potently inhibiting” and the Adverse event [5] is given as “Progressive multifocal leukoencephalopathy”. The “cell-surface molecules involved in T cell activation (CD3, TCR, CD4, CD8, CD28, integrin VLA-4)” value [6] was “downregulate”.

B1: Bleselumab: fully human IgG4 monoclonal antibody (mAb) that targets CD40 (antibody, chains of the INN, looked up, V domains shown)
VH: QLQLQESGPGLLKPSETLSLTCTVSGGSISSPGYYGGWIRQPPGKGLEWIGSIYKSGSTYHNPSLKSRVTISVDTSKNQFSLKLSSVTAADTAVYYCTRPVVRYFGWFDPWGQGTLVTVSS
VL: AIQLTQSPSSLSASVGDRVTITCRASQGISSALAWYQQKPGKAPKLLIYDASNLESGVPSRFSGSGSGTDFTLTISSLQPEDFATYYCQQFNSYPTFGQGTKVEIK
In the case of B1, the clinically malignant events ([7]; as compared to CD40L-specific mAbs, ref Anil Kumar et al., 2018) is given as “no clinically malignant events”, the “Efficacy (PASI scores of psoriasis)” value [7] is given as “Ineffective” and the “Efficacy (PASI scores of psoriasis)” value ([7]; listed as bleselumab) is given as “did not improve”. The Adverse event [7] was “Transient elevations of liver transaminase enzymes” and the Adverse event ([7]; listed as bleselumab) was “transient elevations in liver transaminase enzymes”.
